ChEMBL document CHEMBL1201862, “PubChem BioAssay data set” (2004)
Calls of active or inactive are those of the source.

Key:
[1] = HepG2 cell cytotoxicity, dose response, cytotoxicity control for non-replicating M. tuberculosis project (AID 489018); type: functional; conditions: Mycobacterium tuberculosis
Vero = assay: cells; type: functional; conditions: Chlorocebus sabaeus
[2] = THP-1 cell cytotoxicity, dose response, cytotoxicity control for non-replicating M. tuberculosis project (AID 489025); type: functional
cells [3] = type: functional
[4] = microbe, parasite or virus in culture; type: functional; conditions: Mycobacterium tuberculosis
[5] = Vero E6 cell cytotoxicity, dose response, cytotoxicity control for non-replicating M. tuberculosis project, secondary assay (AID 492998); type: functional, VeroE6; conditions: Vero C1008
HEK293 [6] = assay: cells; type: functional, cell-based; conditions: Homo sapiens
HEK293 [7] = assay: NOD1 signaling inhibitors, primary screen, cell-based, luminescence, uHTS (AID 1578); type: functional; conditions: Homo sapiens
[8] = biological target: T1, RNA-binding protein pos-1 (Caenorhabditis elegans, UniProt G5EF15); assay: inhibitors of POS-1/mex-3 RNA binding, dose response, biochemical, fluorescence polarization (AID 1964);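 note: purified POS-1 fused to maltose binding protein made in E. coli; potency of compounds blocking POS-1 binding to fluorescent RNA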
T1 sequence (G5EF15 whole entry): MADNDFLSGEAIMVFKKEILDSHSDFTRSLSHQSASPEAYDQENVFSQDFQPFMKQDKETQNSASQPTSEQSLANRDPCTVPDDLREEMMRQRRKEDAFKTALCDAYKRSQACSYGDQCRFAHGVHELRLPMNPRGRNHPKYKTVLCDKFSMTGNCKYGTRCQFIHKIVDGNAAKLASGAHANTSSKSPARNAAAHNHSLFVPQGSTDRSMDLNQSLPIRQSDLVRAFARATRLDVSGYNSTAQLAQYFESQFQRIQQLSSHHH

[9] = HeLa cell cytotoxicity, dose response, cytotoxicity control for MgcRacGAP inhibitor project (AID 624300); type: functional
HEK293 [10] = assay: cells; type: functional, cell-based; conditions: Homo sapiens; remark: listed apart in the source
[11] = biological target: T2, Microphthalmia-associated transcription factor (Homo sapiens, UniProt O75030); assay: TRPM1 promoter luciferase signal decrease, dose response, MITF inhibitor project, cell-based, SK-MEL-5, cherry-picked, set 3 (AID 493073); type: functional
T2 sequence (O75030 whole entry): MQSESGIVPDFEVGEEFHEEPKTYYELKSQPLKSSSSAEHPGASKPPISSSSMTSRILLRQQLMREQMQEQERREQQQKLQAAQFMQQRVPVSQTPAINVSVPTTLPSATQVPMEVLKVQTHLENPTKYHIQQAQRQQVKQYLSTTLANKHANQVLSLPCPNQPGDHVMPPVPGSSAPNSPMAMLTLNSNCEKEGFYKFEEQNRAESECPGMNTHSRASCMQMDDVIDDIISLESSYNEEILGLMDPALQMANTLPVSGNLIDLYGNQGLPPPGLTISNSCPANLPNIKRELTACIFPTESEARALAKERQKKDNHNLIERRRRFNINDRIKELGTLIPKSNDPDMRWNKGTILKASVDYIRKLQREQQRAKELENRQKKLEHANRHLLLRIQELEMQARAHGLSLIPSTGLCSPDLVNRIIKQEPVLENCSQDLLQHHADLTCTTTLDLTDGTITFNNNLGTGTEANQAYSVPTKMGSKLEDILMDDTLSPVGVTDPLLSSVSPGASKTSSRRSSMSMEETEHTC

[12] = biological target: Nucleotide-binding oligomerization domain-containing protein 2 (Homo sapiens, UniProt Q9HC29); assay: NOD2 signaling inhibitors, cell-based, luminescence, uHTS, HEK293 (AID 1566); type: functional
HEK293 [13] = assay: NOD2 signaling inhibitors in MDP-stimulated cells, cell-based, uHTS, luminescence (AID 2001); type: functional; conditions: Homo sapiens
HEK293 [14] = assay: cells; type: functional, cell-based; conditions: Homo sapiens; remark: listed apart in the source
[15] = biological target: T3, Zinc finger protein mex-5 (Caenorhabditis elegans, UniProt Q9XUB2); assay: MEX-5/TCR-2 RNA interaction inhibitors, dose response, biochemical, C. elegans, fluorescence polarization (AID 1960)
T3 sequence (Q9XUB2 whole entry): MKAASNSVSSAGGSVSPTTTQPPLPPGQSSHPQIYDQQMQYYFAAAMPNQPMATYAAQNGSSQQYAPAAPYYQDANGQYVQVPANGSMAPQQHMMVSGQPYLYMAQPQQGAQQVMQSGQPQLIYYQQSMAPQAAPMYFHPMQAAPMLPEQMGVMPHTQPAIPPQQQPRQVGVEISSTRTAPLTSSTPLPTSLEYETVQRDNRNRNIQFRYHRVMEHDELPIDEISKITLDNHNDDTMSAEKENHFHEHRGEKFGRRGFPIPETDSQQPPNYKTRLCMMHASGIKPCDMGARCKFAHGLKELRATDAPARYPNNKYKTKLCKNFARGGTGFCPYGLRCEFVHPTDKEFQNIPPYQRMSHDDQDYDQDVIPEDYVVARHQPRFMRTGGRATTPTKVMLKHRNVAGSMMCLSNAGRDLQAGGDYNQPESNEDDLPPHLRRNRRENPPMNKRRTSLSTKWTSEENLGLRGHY

[16] = biological target: DNA damage-inducible transcript 3 protein (Mus musculus, UniProt P35639); type: functional, Cricetulus griseus
X-box-binding protein 1 = X-box-binding protein 1 (Homo sapiens, UniProt P17861); type: functional, Cricetulus griseus;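 note: confirmatory dose-response counter-screen serving a CHOP assay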
cells [17] = type: functional, cell-based
cells [18] = type: functional, cell-based; remark: listed apart in the source
[19] = biological target: Induced myeloid leukemia cell differentiation protein Mcl-1 (Homo sapiens, UniProt Q07820); type: functional
Bcl-2-like protein 10 = biological target: T4, Bcl-2-like protein 10 (Homo sapiens, UniProt Q9HD36); assay: displacers of TR3 peptide from Bcl-B, primary screen, selectivity assay for Bfl-1 inhibitor project, biochemical, fluorescence polarization, FITC-TR3 peptide (AID 748);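 note: fluorescence polarization from a fluorescein-labelled TR3 peptide binding purified Bcl-B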
T4 sequence (Q9HD36 whole entry): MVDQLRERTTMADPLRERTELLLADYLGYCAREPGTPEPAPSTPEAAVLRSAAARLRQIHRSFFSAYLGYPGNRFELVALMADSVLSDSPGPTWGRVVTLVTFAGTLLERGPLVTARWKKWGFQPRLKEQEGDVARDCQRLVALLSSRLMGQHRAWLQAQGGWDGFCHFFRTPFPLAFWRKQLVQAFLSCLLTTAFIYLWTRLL

Sequence of Nucleotide-binding oligomerization domain-containing protein 2 (Q9HC29 whole entry, the tested form may be a part): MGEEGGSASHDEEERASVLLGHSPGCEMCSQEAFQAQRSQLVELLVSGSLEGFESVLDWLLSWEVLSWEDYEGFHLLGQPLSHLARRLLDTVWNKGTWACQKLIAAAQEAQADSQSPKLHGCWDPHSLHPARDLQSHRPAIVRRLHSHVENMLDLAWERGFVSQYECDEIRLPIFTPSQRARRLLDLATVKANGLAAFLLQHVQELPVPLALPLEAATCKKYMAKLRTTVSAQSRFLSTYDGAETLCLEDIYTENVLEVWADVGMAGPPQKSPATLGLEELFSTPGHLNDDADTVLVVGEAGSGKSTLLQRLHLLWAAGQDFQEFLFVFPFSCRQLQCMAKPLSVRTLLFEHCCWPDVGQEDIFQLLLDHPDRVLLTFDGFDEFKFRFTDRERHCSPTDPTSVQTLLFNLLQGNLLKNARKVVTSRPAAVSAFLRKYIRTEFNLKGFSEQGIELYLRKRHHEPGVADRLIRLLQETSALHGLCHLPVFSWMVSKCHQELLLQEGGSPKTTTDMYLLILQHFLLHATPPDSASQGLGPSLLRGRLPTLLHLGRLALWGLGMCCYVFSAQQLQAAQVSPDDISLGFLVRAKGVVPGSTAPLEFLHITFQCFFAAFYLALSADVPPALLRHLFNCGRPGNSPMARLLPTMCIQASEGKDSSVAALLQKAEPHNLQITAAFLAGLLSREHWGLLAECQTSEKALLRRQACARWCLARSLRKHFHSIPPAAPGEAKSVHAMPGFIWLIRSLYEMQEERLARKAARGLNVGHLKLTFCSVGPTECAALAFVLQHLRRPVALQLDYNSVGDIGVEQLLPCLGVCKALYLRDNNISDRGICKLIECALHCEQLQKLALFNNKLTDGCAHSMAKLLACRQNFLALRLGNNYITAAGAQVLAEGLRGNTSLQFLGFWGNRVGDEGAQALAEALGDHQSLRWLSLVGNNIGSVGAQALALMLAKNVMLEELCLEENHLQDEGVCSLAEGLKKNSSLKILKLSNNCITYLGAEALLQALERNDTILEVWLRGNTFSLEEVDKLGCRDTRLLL
Sequence of Induced myeloid leukemia cell differentiation protein Mcl-1 (Q07820 whole entry): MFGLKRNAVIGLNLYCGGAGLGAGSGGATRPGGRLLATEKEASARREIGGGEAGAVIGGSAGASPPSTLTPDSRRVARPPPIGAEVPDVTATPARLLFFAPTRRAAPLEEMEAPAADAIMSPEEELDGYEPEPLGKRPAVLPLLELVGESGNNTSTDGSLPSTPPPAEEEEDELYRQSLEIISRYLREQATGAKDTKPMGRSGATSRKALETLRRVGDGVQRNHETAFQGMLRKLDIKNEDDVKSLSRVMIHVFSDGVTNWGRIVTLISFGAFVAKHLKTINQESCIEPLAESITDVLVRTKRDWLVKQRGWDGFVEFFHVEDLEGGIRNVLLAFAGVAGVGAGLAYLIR
Sequence of X-box-binding protein 1 (P17861 whole entry): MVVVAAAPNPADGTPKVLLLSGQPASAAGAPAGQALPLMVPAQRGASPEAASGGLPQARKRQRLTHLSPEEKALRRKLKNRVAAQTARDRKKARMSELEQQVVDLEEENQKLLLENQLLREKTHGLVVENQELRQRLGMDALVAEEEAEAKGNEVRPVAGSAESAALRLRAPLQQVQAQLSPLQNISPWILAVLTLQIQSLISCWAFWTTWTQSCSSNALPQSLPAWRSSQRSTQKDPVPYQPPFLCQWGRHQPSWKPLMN
Sequence of DNA damage-inducible transcript 3 protein (P35639 whole entry): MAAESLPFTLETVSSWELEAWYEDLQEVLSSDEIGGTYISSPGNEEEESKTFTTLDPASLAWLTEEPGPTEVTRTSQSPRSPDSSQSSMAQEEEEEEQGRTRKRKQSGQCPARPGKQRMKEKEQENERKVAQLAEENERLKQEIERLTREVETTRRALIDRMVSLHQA

For O=C(c1ccc(Cl)cc1)N1N=C(c2ccccn2)CC1(O)C(F)(F)F (stereo not drawn), the CC50 [1] was 15.2 µM (active), the CC50 (Vero) was 20.4 µM (active) and the CC50 [2] was 11.6 µM (active). For the same compound, the IC50 (cells [3]) was 3.69 µM (active), the CC50 [4] was 32.6 µM (active) and the CC50 [5] was 13.3 µM (active).
In the case of C=CCN1C(=O)NC(=O)/C(=C/C=C/c2ccccc2)C1=O, the IC50 (HEK293 [6]) is reported as > 20 µM (inactive), the EC50 (HEK293 [7]) is reported as > 20 µM (inactive) and the EC50 [8] is reported as > 300 µM (not active). The CC50 [9] was 75.4 µM (active), the IC50 (HEK293 [10]) was 9.21 µM (active) and the CC50 (Vero) was > 25 µM (active). The AC50 [11] was 5.94 µM (active), the EC50 [12] was > 20 µM (inactive) and the IC50 (HEK293 [13]) was 12.4 µM (inactive). The IC50 (HEK293 [14]) was > 20 µM (inactive) and the EC50 [15] was > 300 µM (not active).
For Clc1ccc(-c2csc(N/N=C/c3cccnc3)n2)c(Cl)c1, the “Absolute IC50 (CHOP)” value [16] was 10 µM and the “Absolute IC50 (XBP1)” value (X-box-binding protein 1) was 10 µM.
In the case of Cc1ccc(N=Nc2ccc(O)c(/C=N\NC(=O)c3ccc(N)cc3)c2)cc1C, the EC50 (cells [17]) is reported as > 350 µM (not active), the EC50 (cells [18]) is reported as > 350 µM (not active) and the IC50 [19] is reported as 2.62 µM (active). The IC50 (Bcl-2-like protein 10) was > 100 µM (inactive).
